The values that follow come from US3994981A, “Derivatives of certain geranyl phenyl ethers” (Stauffer Chemical Company, priority 1973, dated 1976).

The assay has as its system yellow mealworm, Tenebrio molitor, L. Nature of the assay: Insecticidal evaluation test: hindering metamorphosis of insects (Tenebrio molitor pupae, topical application). The format is in vivo. The settings on record: applied in acetone to the venter of pupae 1-25 hours old; 28° C., 40% humidity; graded at adult emergence (6-8 days); average of 2 groups of 20 pupae. The protocol:
The degree of activity of a candidate compound to hinder or impede the metamorphosis of insects is measured by treating the penultimate larval stage of a representative insect with the compound and examining it after its last molt toward the adult form for retention of immature features.
Specifically, yellow mealworm, Tenebrio molitor, L., larvae are maintained at 28° C. and 40% humidity on a diet of bran flakes. Prepupae care collected from the culture and kept in separate containers. The pupae collected once daily, are 1-25 hours old at the time of treatment. By means of a syringe, suitable amounts of candidate compounds in […] of acetone are applied to the ventor of Tenebrio molitor, L. pupae. Treated pupae are maintained at 28° C. and 40% humidity until the adults emerged (usually within 6-8 days). Emerged adults are graded as positive, negative, or dead. To be considered a positive response, the presence of typical pupal cuticle, urogomphi, gin trap, and abnormal wings, etc., are required. For each test, 2 groups of 20 pupae were used and the averaged results were reported.
The dose of a candidate compound per pupa that is needed to kill or give a positive response in the above insecticidal evaluation test for 10 of the 20 pupae is determined.
Turning to `C=C(C)C(Cl)CCC(C)=CCOc1ccc(SC)cc1` (stereo not shown) [Compound 1], the “ED50: dose per pupa needed to kill or give a positive response for 10 of the 20 pupae” value (from here on “ED50: dose per pupa needed”) worked out at 0.3 μg/pupa.

As to `C=C(C)C(Cl)CCC(C)=CCOc1ccc(CC)cc1` (stereo not shown) [Compound 2, 1-(4'-ethyl) phenoxy-3,7-dimethyl-6-chloro-2,7-octadiene], the “ED50: dose per pupa needed” value amounted to 0.1 μg/pupa.

`C=C(C)C(Br)CCC(C)=CCOc1ccc(CC)cc1` (stereo not shown) [Compound 3, 1-(4'-ethyl) phenoxy-3,7-dimethyl-6-bromo-2,7-octadiene]: the “ED50: dose per pupa needed” value is recorded as 0.5 μg/pupa.

`C=C(C)C(Cl)CCC1(C)OC1COc1ccc(CC)cc1` (stereo not shown) [Compound 24, 3,7-dimethyl-6-chloro-1-p-ethylphenoxy-2,3-epoxy-7-octene]: the “ED50: dose per pupa needed” value worked out at 0.03 μg/pupa.
